Columns and labels:
Format in all cases: cell-based
[1] = test system: HL-60(TB); test: NCI-60 cell line panel: HL-60(TB); design: TGI: unit not given here; settings: Leukemia
Procedure: (§1) It was carried out at the NCI, Bethesda, MD, USA, utilizing their standard protocol.

[2] = test system: MOLT-4; test: NCI-60 cell line panel: MOLT-4; design: TGI: unit not given here; settings: Leukemia
Procedure: as §1

[3] = test system: RPMI-8226; test: NCI-60 cell line panel: RPMI-8226; settings: Leukemia
Procedure: as §1

[4] = test system: EKVX; test: NCI-60 cell line panel: EKVX; settings: Non-Small Cell Lung Cancer
Procedure: as §1

[5] = test system: HOP-62; test: NCI-60 cell line panel: HOP-62; settings: Non-Small Cell Lung Cancer
Procedure: as §1

[6] = test system: HOP-92; test: NCI-60 cell line panel: HOP-92; design: TGI: unit not given here; settings: Non-Small Cell Lung Cancer
Procedure: as §1

[7] = test system: NCI-H322M; test: NCI-60 cell line panel: NCI-H322M; settings: Non-Small Cell Lung Cancer
Procedure: as §1

[8] = test system: NCI-H460; test: NCI-60 cell line panel: NCI-H460; settings: Non-Small Cell Lung Cancer
Procedure: as §1

[9] = test system: COLO 205; test: NCI-60 cell line panel: COLO 205; design: TGI: unit not given here; settings: Colon Cancer
Procedure: as §1

[10] = test system: HCT-15; test: NCI-60 cell line panel: HCT-15; settings: Colon Cancer
Procedure: as §1

[11] = test system: HT29; test: NCI-60 cell line panel: HT29
Procedure: as §1

[12] = test system: KM12; test: NCI-60 cell line panel: KM12; settings: Colon Cancer
Procedure: as §1

[13] = test system: SF-295; test: NCI-60 cell line panel: SF-295; settings: CNS Cancer
Procedure: as §1

[14] = test system: SNB-19; test: NCI-60 cell line panel: SNB-19; settings: CNS Cancer
Procedure: as §1

[15] = test system: SNB-75; test: NCI-60 cell line panel: SNB-75; design: TGI: unit not given here; settings: CNS Cancer
Procedure: as §1

[16] = test system: U251; test: NCI-60 cell line panel: U251; design: TGI: unit not given here
Procedure: as §1

[17] = test system: MALME-3M; test: NCI-60 cell line panel: MALME-3M; settings: Melanoma
Procedure: as §1

[18] = test system: SK-MEL-2; test: NCI-60 cell line panel: SK-MEL-2; design: TGI: unit not given here; settings: Melanoma
Procedure: as §1

[19] = test system: SK-MEL-5; test: NCI-60 cell line panel: SK-MEL-5; settings: Melanoma
Procedure: as §1

[20] = test system: UACC-257; test: NCI-60 cell line panel: UACC-257; settings: Melanoma
Procedure: as §1

[21] = test system: UACC-62; test: NCI-60 cell line panel: UACC-62; settings: Melanoma
Procedure: as §1

[22] = test system: IGROV1; test: NCI-60 cell line panel: IGROV1
Procedure: as §1

[23] = test system: OVCAR-3; test: NCI-60 cell line panel: OVCAR-3; settings: Ovarian Cancer
Procedure: as §1

[24] = test system: OVCAR-4; test: NCI-60 cell line panel: OVCAR-4; settings: Ovarian Cancer
Procedure: as §1

[25] = test system: OVCAR-8; test: NCI-60 cell line panel: OVCAR-8; settings: Ovarian Cancer
Procedure: as §1

[26] = test system: CAKI-1; test: NCI-60 cell line panel: CAKI-1; design: TGI: unit not given here; settings: Renal Cancer
Procedure: as §1

[27] = test system: TK-10; test: NCI-60 cell line panel: TK-10; settings: Renal Cancer
Procedure: as §1

[28] = test system: HS 578T; test: NCI-60 cell line panel: HS 578T
Procedure: as §1

[29] = test system: T-47D; test: NCI-60 cell line panel: T-47D; settings: Breast Cancer
Procedure: as §1

[30] = test system: MDA-MB-468; test: NCI-60 cell line panel: MDA-MB-468; settings: Breast Cancer
Procedure: as §1

[31] = test system: HepG2; test: MTT assay, HepG2 HCC cell line; settings: Homo sapiens, 48 h, mean of triplicate assays ± SEM
Procedure: (§2) Two HCC cell lines (Hep3B and HepG2) were used for screening the antiproliferative activity of the synthesized compounds. The cell lines were obtained from the European Collection of Cell Cultures (ECACC, UK) and maintained in Dulbecco's Modified Eagle Medium (DMEM: Sigma-Aldrich) supplemented with 10% fetal bovine serum (FBS) and 1% penicillin/streptomycin and incubated at 37° C. in a 5% CO2 air atmosphere. In addition, WI-38 normal cell line was used to investigate the safety of these compounds.
(§3) MTT assay was conducted to calculate the IC50 of the compounds following the reported procedure . Briefly, the cells were seeded in 96-well tissue culture plates with a density of 5×10^4 cells/well and incubated overnight at 37° C. in a 5% CO2 air atmosphere. […] DMSO was used as a negative control. After 48 h, the media were aspirated, and replaced with media containing 0.5 mg/mL of MTT tetrazolium dye (Sigma-Aldrich) for 2 h at 37° C. Finally, the media were removed and 200 μL of DMSO was added to solubilize the formazan crystals. Absorbance was then measured at 570 nm using Varioskan Flash multimode plate reader (Thermo Scientific, Massachusetts, USA).

[32] = test system: Hep3B; test: MTT assay, Hep3B HCC cell line; settings: Homo sapiens, 48 h, mean of triplicate assays ± SEM
Procedure: as §2, §3

[33] = total growth inhibition, in µM (unit assumed)

CCN1CCN(c2ccc(NC(=O)Nc3ccc(-c4cc(C(=O)NC(C)C)c5ncccc5n4)cc3)cc2C(F)(F)F)CC1 [Compound 13f, 2-(4-(3-(4-(4-Ethylpiperazin-1-yl)-3-(trifluoromethyl)phenyl)ureido)phenyl)-N-isopropyl-1,5-naphthyridine-4-carboxamide] showed an IC50 ([1]; Homo sapiens) of 1070 nM, a TGI ([1]; total growth inhibition) of 5.89 and an IC50 ([2]; Homo sapiens) of 1110 nM. The TGI ([2]; total growth inhibition) was 30.60, the IC50 ([3]; Homo sapiens) was 1040 nM and the TGI ([3]; total growth inhibition) was > 34500 nM. For the same molecule, the IC50 ([4]; Homo sapiens) was 1610 nM, the TGI [4, 33] was 5.82 and the IC50 ([5]; Homo sapiens) was 3830 nM. It also gave a TGI ([5]; total growth inhibition) of 8890 nM, an IC50 ([6]; Homo sapiens) of 3140 nM and a TGI ([6]; total growth inhibition) of 8.29. The IC50 ([7]; Homo sapiens) was 1850 nM, the TGI ([7]; total growth inhibition) was 7240 nM and the IC50 ([8]; Homo sapiens) was 620 nM. The TGI ([8]; total growth inhibition) was 1180 nM, the TGI ([9]; total growth inhibition) was 2.71 and the IC50 ([9]; Homo sapiens) was 930 nM. For the same molecule, the TGI ([10]; total growth inhibition) was 1350 nM, the IC50 ([10]; Homo sapiens) was 670 nM and the TGI ([11]; Colon Cancer, total growth inhibition) was 1320 nM. For the same molecule, the IC50 ([11]; Homo sapiens, HT-29, Colon Cancer) was 670 nM, the TGI ([12]; total growth inhibition) was 2910 nM and the IC50 ([12]; Homo sapiens) was 1010 nM. For the same molecule, the TGI ([13]; total growth inhibition, unit assumed) was 1140 nM, the IC50 ([13]; Homo sapiens) was 580 nM and the TGI ([14]; total growth inhibition) was 9120 nM. For the same molecule, the IC50 ([14]; Homo sapiens) was 4240 nM, the TGI ([15]; total growth inhibition) was 5.14 and the IC50 ([15]; Homo sapiens) was 980 nM. For the same molecule, the TGI ([16]; CNS Cancer, total growth inhibition) was 4.82, the IC50 ([16]; Homo sapiens, U-251, CNS Cancer) was 1240 nM and the IC50 ([17]; Homo sapiens) was 580 nM. The TGI [17, 33] was 1.05, the IC50 ([18]; Homo sapiens) was 4820 nM and the TGI ([18]; total growth inhibition) was 9.89. It also gave an IC50 ([19]; Homo sapiens) of 1410 nM, a TGI ([19]; total growth inhibition) of 5280 nM and an IC50 ([20]; Homo sapiens) of 3450 nM. The TGI ([20]; total growth inhibition) was 8110 nM, the IC50 ([21]; Homo sapiens) was 3990 nM and the TGI ([21]; total growth inhibition) was 8280 nM. For the same molecule, the IC50 ([22]; Homo sapiens, IGROV-1, Ovarian Cancer) was 1420 nM, the TGI ([22]; Ovarian Cancer, total growth inhibition) was 5110 nM and the IC50 ([23]; Homo sapiens) was 640 nM. The TGI ([23]; total growth inhibition) was 1360 nM, the IC50 ([24]; Homo sapiens) was 880 nM and the TGI [24, 33] was 2.45. For the same molecule, the IC50 ([25]; Homo sapiens) was 5690 nM, the TGI [25, 33] was 17.5 and the IC50 ([26]; Homo sapiens) was 800 nM. For the same molecule, the TGI ([26]; total growth inhibition) was 2.08, the IC50 ([27]; Homo sapiens) was 1350 nM and the TGI ([27]; total growth inhibition) was 4870 nM. It also gave a TGI ([28]; Breast Cancer, HS 578T, total growth inhibition) of 3450 nM, an IC50 ([28]; Homo sapiens, Hs-578T) of 880 nM and a TGI ([29]; total growth inhibition) of 8740 nM. It also gave an IC50 ([29]; Homo sapiens, T47D) of 1930 nM, a TGI ([30]; total growth inhibition) of 1850 nM and an IC50 ([30]; Homo sapiens) of 770 nM. For the same molecule, the IC50 [31] was 460 ± 60 nM and the IC50 [32] was 1090 ± 140 nM.
